Laboratory results reported in ChEMBL document CHEMBL4342417, “Design, synthesis and evaluation of novel phenothiazine derivatives as inhibitors of breast cancer stem cells” (Eur J Med Chem, 2019).

What was measured:
MDA-MB-231 [1] = test: Antiproliferative activity against human MDA-MB-231 cells assessed as reduction in cell viability incubated for 2 days by MTT assay; format: functional, cell-based; conditions: MDA-MB-231, 48 h
SUM-159-PT [2] = test: Antiproliferative activity against human SUM159 cells assessed as reduction in cell viability incubated for 2 days by MTT assay; format: functional, cell-based; conditions: 48 h
SK-BR-3 [3] = test: Antiproliferative activity against human SKBR3 cells assessed as reduction in cell viability incubated for 2 days by MTT assay; format: functional, cell-based; conditions: SK-BR-3, 48 h
MCF7 = test: Antiproliferative activity against human MCF7 cells assessed as reduction in cell viability incubated for 2 days by MTT assay; format: functional, cell-based; conditions: MCF7, 48 h
MDA-MB-231 [4] = test: Potency index, ratio of IC50 of TFP to IC50 of compound for antiproliferative activity against human MDA-MB-231 cells assessed as reduction in cell viability incubated for 2 days by MTT assay; format: functional
SK-BR-3 [5] = test: Potency index, ratio of IC50 of TFP to IC50 of compound for antiproliferative activity against human SKBR3 cells assessed as reduction in cell viability incubated for 2 days by MTT assay; format: functional
KG-1a = test: Antiproliferative activity against human KG1a cells assessed as reduction in cell viability incubated for 2 days by MTT assay; format: functional, cell-based; conditions: 48 h
SUM-159-PT [6] = test: Potency index, ratio of IC50 of TFP to IC50 of compound for antiproliferative activity against human SUM159 cells assessed as reduction in cell viability incubated for 2 days by MTT assay; format: functional

Compound	IC50 (MDA-MB-231 [1])	IC50 (SUM-159-PT [2])	IC50 (SK-BR-3 [3])	IC50 (MCF7)	Ratio IC50 (MDA-MB-231 [4])	Ratio IC50 (SK-BR-3 [5])	IC50 (KG-1a)	Ratio IC50 (SUM-159-PT [6])
O=C1CC(c2ccc(O)cc2)Oc2cc(O)c(CN3CCN(CCCN4c5ccccc5Sc5ccccc54)CC3)c(O)c21 (configuration not stated)	> 50 µM	> 50 µM	> 50 µM	> 50 µM	–	–	–	–
CSc1ccc2c(c1)N(CCCN1CCN(Cc3c(O)cc4c(c3O)C(=O)CC(c3ccccc3)O4)CC1)c1ccccc1S2 (configuration not stated)	> 50 µM	> 50 µM	> 50 µM	> 50 µM	–	–	–	–
O=C1CC(c2ccccc2)Oc2cc(O)c(CN3CCN(CCCN4c5ccccc5Sc5ccccc54)CC3)c(O)c21 (configuration not stated)	> 50 µM	> 50 µM	> 50 µM	> 50 µM	–	–	–	–
COCCN(CCCN1c2ccccc2Sc2ccccc21)CCOC	45.1 µM	35.3 µM	> 50 µM	29.8 µM	–	–	–	–
O=C(CCC(=O)N1CCN(CCCN2c3ccccc3Sc3ccc(C(F)(F)F)cc32)CC1)OCC#CCOc1no[n+]([O-])c1S(=O)(=O)c1ccccc1	5.89 µM	5.44 µM	18 µM	7.26 µM	–	–	–	–
OCCN(CCO)CCCN1c2ccccc2Sc2ccc(C(F)(F)F)cc21	6.09 µM	46 µM	43.2 µM	33.6 µM	–	–	–	–
CSc1ccc2c(c1)N(CCCN(CCO)CCO)c1ccccc1S2	10.3 µM	24.6 µM	27.2 µM	36.7 µM	–	–	–	–
COCCN(CCCN1c2ccccc2Sc2ccc(C(F)(F)F)cc21)CCOC	> 50 µM	29.9 µM	> 50 µM	> 50 µM	–	–	–	–
CSc1ccc2c(c1)N(CCCN1CCN(C(=O)CCC(=O)NCCOc3no[n+]([O-])c3S(=O)(=O)c3ccccc3)CC1)c1ccccc1S2	3.41 µM	9.34 µM	2.68 µM	12.2 µM	4 - 15	4 - 9	–	–
O=C1CC(c2ccc(O)cc2)Oc2cc(O)c(CN3CCN(CCCN4c5ccccc5Sc5ccc(C(F)(F)F)cc54)CC3)c(O)c21 (configuration not stated)	> 50 µM	25 µM	> 50 µM	> 50 µM	–	–	–	–
CSc1ccc2c(c1)N(CCC1CCCCN1C)c1ccccc1S2 (configuration not stated) [THIORIDAZINE]	14.2 µM	14.5 µM	18.2 µM	–	–	–	6.01 µM	–
CSc1ccc2c(c1)N(CCCN1CCN(C(=O)CCC(=O)OCC#CCOc3no[n+]([O-])c3S(=O)(=O)c3ccccc3)CC1)c1ccccc1S2	20.2 µM	3.97 µM	2.63 µM	4.32 µM	–	6	–	–
O=C(CCC(=O)N1CCN(CCCN2c3ccccc3Sc3ccccc32)CC1)NCCOc1no[n+]([O-])c1S(=O)(=O)c1ccccc1	1.43 µM	4.17 µM	4.01 µM	5.58 µM	4 - 15	4 - 9	–	4
O=C(CCC(=O)N1CCN(CCCN2c3ccccc3Sc3ccccc32)CC1)OCCOCCOc1no[n+]([O-])c1S(=O)(=O)c1ccccc1	14.8 µM	1.95 µM	3.13 µM	12.2 µM	–	4	–	4 - 9
CSc1ccc2c(c1)N(CCCN1CCN(C(=O)CCC(=O)OCCOCCOc3no[n+]([O-])c3S(=O)(=O)c3ccccc3)CC1)c1ccccc1S2	3.06 µM	4.31 µM	3.91 µM	11.9 µM	7	4	–	4 - 9
COCCN(CCCN1c2ccccc2Sc2ccc(SC)cc21)CCOC	40.5 µM	18.3 µM	31.9 µM	6.09 µM	–	–	–	–
O=C1CC(c2ccccc2)Oc2cc(O)c(CN3CCN(CCCN4c5ccccc5Sc5ccc(C(F)(F)F)cc54)CC3)c(O)c21 (configuration not stated)	> 50 µM	> 50 µM	> 50 µM	> 50 µM	–	–	–	–
OCCN(CCO)CCCN1c2ccccc2Sc2ccccc21	> 50 µM	> 50 µM	> 50 µM	> 50 µM	–	–	–	–
CSc1ccc2c(c1)N(CCCN1CCN(Cc3c(O)cc4c(c3O)C(=O)CC(c3ccc(O)cc3)O4)CC1)c1ccccc1S2 (configuration not stated)	> 50 µM	32.2 µM	> 50 µM	> 50 µM	–	–	–	–
